Bridge positions count the residues as written; N and C are the ends. Square brackets hold non-standard residues; d marks the D form. Peptide text beside a SMILES is read from it. Sar = CNCC(=O)O
Columns and labels:
rat isolated uterus = assay type: cell-based; details: for AGONIST ACTIVITY: relative to Angiotensin II = 100; for agonist / antagonist character in words: footnotes of Table I
Procedure: ^b = Agonist Activity was measured via a rat isolated uterus bioassay
as described by Matsoukas et al., J. Med. Chem., 31, pp. 1418-1421 (1988)
Results are reported relative to Angiotensin II wherein Angiotensin II =
Analogs of Angiotensin II were synthesized, purified and bioassayed by method described by Matsoukas et al., J. Med. Chem., 31, pp. 1418-1421 (1988). 1,2-propanediol [Pr(OH)2 ] was dried by refluxing over calcium oxide for 8 hours, collected by distillation and stored over a molecular sieve. Water content was estimated by ^1 H NMR or by the Karl Fisher method. Isopropanol (PrOH) was of HPLC grade (Caledon Laboratories Ltd) and was expected to contain less than 1% water. Dimethyl sulfoxide (DMSO) and trifluoroethanol (TFE) were used without further treatment. Aqueous solvents were prepared from distilled water which had been passed through Fisher ion-exchange cartridges. N-acetyl-tyrosine-amide (NAYA) was obtained from Sigma. Sodium dodecylsulfate (SDS) was obtained from BDH biochemicals (specially pure) and was used without further treatment.
[Sar^1 ]Angiotensin II was synthesized by the solid phase technique and purified to homogeneity by reversed-phase HPLC using methods described by Matsoukas et al., J. Med. Chem. 31(7), pp. 1418-1421 (1988). The synthetic peptide gave the required amino acid analysis and appeared as a single product in two thin layer chromatography (TLC) systems. [Sar^1 ]Angiotensin II had 180% of the bioactivity of Angiotensin II in the rat uterus assay which is also described by Matsoukas et al., supra. Since HPLC afforded the trifluoroacetate salt of the peptide, [Sar^1 ]Angiotensin II was neutralized by passage through a column (1.5×3 cm) of carboxymethylcellulose (Whatman CM23) cation exchange resin. The peptide (10 mg) was first applied to the column in 0.01M ammonium acetate at pH 5 (5 ml) and then eluted with 0.5M ammonium acetate at pH 8 (10 ml). The effluent obtained at pH 8 was lyophilized thrice and 5 mg of the product was dissolved in 0.5 ml of DMSO-d6 and two drops of D2 O were added. Argon was bubbled through the sample for 5 minutes before the NMR tube was sealed.

[1] = agonist activity of oxytocin analog (assay not described)

With CC[C@H](C)[C@H](NC(=O)[C@H](Cc1ccc(O)cc1)NC(=O)[C@@H](NC(=O)[C@H](CCCNC(=N)N)NC(=O)CNC)C(C)C)C(=O)N[C@@H](Cc1ccccc1)C(=O)N1CCC[C@H]1C(=O)N[C@@H](Cc1ccccc1)C(=O)O [C] (H-[Sar]RVYIFPF-OH) as the molecule, how does the “AGONIST ACTIVITY” value (rat isolated uterus) read?
The value was 7.

For CC[C@H](C)[C@H](NC(=O)[C@H](Cc1ccc(O)cc1)NC(=O)[C@@H](NC(=O)[C@H](CCCNC(=N)N)NC(=O)CNC)C(C)C)C(=O)N[C@@H](Cc1c[nH]cn1)C(=O)N1CCC[C@H]1C(=O)N[C@@H](CC1CCCCC1)C(=O)O [D], which “agonist / antagonist character in words” value (rat isolated uterus) is on record?
Its value is “Potent receptor antagonist with residual agonist activity”.

And the “AGONIST ACTIVITY” value (rat isolated uterus)?
Its value is 4.

With CC[C@H](C)[C@H](NC(=O)[C@H](Cc1ccc(O)cc1)NC(=O)[C@@H](NC(=O)[C@@H](N)CCCNC(=N)N)C(C)C)C(=O)N[C@@H](Cc1c[nH]cn1)C(=O)N1CCC[C@H]1C(=O)N[C@@H](CC1CCCCC1)C(=O)O [E] as the molecule, how does the “agonist / antagonist character in words” value (rat isolated uterus) read?
The value was “Potent receptor antagonist with residual agonist activity”.

And the “AGONIST ACTIVITY” value (rat isolated uterus)?
The value was 5.

With CC[C@H](C)[C@H](NC(=O)[C@H](Cc1ccc(O)cc1)NC(=O)[C@@H](NC(=O)[C@H](CCCNC(=N)N)NC(=O)CNC)C(C)C)C(=O)N[C@@H](Cc1c[nH]cn1)C(=O)N1CCC[C@H]1C(=O)N[C@@H](Cc1ccccc1)C(N)=O [F] as the molecule, how does the “AGONIST ACTIVITY” value (rat isolated uterus) read?
The value was 0.2.

For CC[C@H](C)[C@H](NC(=O)[C@H](Cc1ccc(O)cc1)NC(=O)[C@@H](NC(=O)[C@H](CCCNC(=N)N)NC(=O)CNC)C(C)C)C(=O)N[C@@H](C)C(=O)N1CCC[C@H]1C(=O)N[C@@H](Cc1ccccc1)C(=O)O [G] (H-[Sar]RVYIAPF-OH), which “AGONIST ACTIVITY” value (rat isolated uterus) is on record?
Its value is “less than 0.1”.

With CC[C@H](C)[C@H](NC(=O)[C@H](Cc1ccc(O)cc1)NC(=O)[C@@H](NC(=O)[C@H](CCCNC(=N)N)NC(=O)CNC)C(C)C)C(=O)N[C@@H](Cc1c[nH]cn1)C(=O)N1CCC[C@@H]1C(=O)N[C@@H](Cc1ccccc1)C(=O)O [I] as the molecule, how does the “AGONIST ACTIVITY” value (rat isolated uterus) read?
The value was “less than 0.1”.

For CC[C@H](C)[C@H](NC(=O)[C@@H]1CCCN1C(=O)[C@H](Cc1c[nH]cn1)NC(=O)[C@@H](NC(=O)[C@H](Cc1ccc(O)cc1)NC(=O)[C@@H](NC(=O)[C@H](CCCNC(=N)N)NC(=O)CNC)C(C)C)[C@@H](C)CC)C(=O)O [J], which “agonist / antagonist character in words” value (rat isolated uterus) is on record?
Its value is “Potent receptor antagonist”.

What about the “AGONIST ACTIVITY” value (rat isolated uterus) of the same molecule?
The value was “less than 0.1”.

For CC[C@H](C)[C@H](NC(=O)[C@H](Cc1ccc(O)cc1)NC(=O)[C@@H](NC(=O)[C@@H](N)CCCNC(=N)N)C(C)C)C(=O)N[C@@H](Cc1c[nH]cn1)C(=O)N1CCC[C@H]1C(=O)N[C@@H](Cc1ccccc1)C(=O)O [K], which “AGONIST ACTIVITY” value (rat isolated uterus) is on record?
Its value is 10.

For CC[C@H](C)[C@H](NC(=O)[C@H](Cc1ccc(O)cc1)NC(=O)[C@@H](NC(=O)[C@H](CCCNC(=N)N)NC(=O)CNC)C(C)C)C(=O)N[C@@H](Cc1c[nH]cn1)C(=O)N1CCC[C@H]1C(=O)N[C@@H](Cc1ccccc1)C(N)=O [Ligand F, [Sar^1 Phe--NH2^8]Angiotensin II], which “agonist / antagonist character in words” value (rat isolated uterus) is on record?
Its value is “lack of significant agonist activity”.

With CC[C@H](C)[C@H](NC(=O)[C@H](Cc1ccc(O)cc1)NC(=O)[C@@H](NC(=O)[C@H](CCCNC(=N)N)NC(=O)CNC)C(C)C)C(=O)N[C@@H](C)C(=O)N1CCC[C@H]1C(=O)N[C@@H](Cc1ccccc1)C(=O)O [Ligand G, [Sar^1 Ala^6]Angiotensin II] (H-[Sar]RVYIAPF-OH) as the molecule, how does the “agonist / antagonist character in words” value (rat isolated uterus) read?
The value was “lack of significant agonist activity”.

For CC[C@H](C)[C@@H]1NC(=O)[C@H](Cc2ccc(O)cc2)NC(=O)[C@@H](N)CSSC[C@@H](C(=O)N2CCC[C@H]2C(=O)N[C@@H](CC(C)C)C(=O)NCC(N)=O)NC(=O)[C@H](C)NC(=O)[C@H](CCC(N)=O)NC1=O [[Ala^5]] (H-CYIQACPLG-NH2; disulfide 1-6), which “agonist activity in words” value [1] is on record?
The value was “no agonist activity”.

For CC[C@H](C)[C@H](NC(=O)[C@H](Cc1ccc(O)cc1)NC(=O)[C@@H](NC(=O)[C@H](CCCNC(=N)N)NC(=O)CNC)C(C)C)C(=O)N[C@@H](Cc1c[nH]cn1)C(=O)N1CCC[C@H]1C(=O)N[C@@H](Cc1ccccc1)C(=O)O [[Sar^1]Angiotensin II, reference compound], which “bioactivity relative to Angiotensin II” value (rat isolated uterus; rat uterus assay) is on record?
Its value is 180%.

With “[Sar^1 Tyr(Me)^4 ]Angiotensin II [reference compound]” as the molecule, how does the “AGONIST ACTIVITY” value (rat isolated uterus) read?
Its value is 100.

With “[Tyr(Me)^4 ]Angiotensin III [B, reference compound]” as the molecule, how does the “AGONIST ACTIVITY” value (rat isolated uterus) read?
The value was 27.

From patent publication US5459077A, “Methods for modelling tertiary structures of biologically active ligands and for modelling agonists and antagonists thereto” (PepMetics, Inc., priority 1993, dated 1995)
